In US20140050779A1, “[…]-2 INHIBITORS AND USES THEREOF” (SINGAPORE HEALTH SERVICES PTE. LTD., priority 2011, published 2014):

How the values were obtained:
[1] = test system: TG-2; assay: Western blot of TG proteins in human scleral fibroblasts after muscarinic agents; format: cell-based
Method: All cells used in examples described herein were between passages 2-4. Passaged cells were plated at a concentration of 2×10^5/mL into 6 well plates containing DMEM with 10% FBS. The cells were seen to attach to the bottom of the culture wells after 4 hours. Old media was removed from wells and 1 mL of drug was added with fresh full medium and incubated at 37° C. Fresh drugs were replaced daily consecutively for the next 5 days to avoid oxidation. The drugs/media was removed and wells were washed twice with 1×PBS. 200 μl of RIPA lysis buffer was added per well and incubated for 5 minutes and cells were scrapped into an eppendorf tube. The cells were stored at −20° C. until sonication. The cells were sonicated on ice thrice at 20% output power for 5 seconds each time and rested 1 minute in between each turn. Cell debris was spun down at 12000 rpm for 20 minutes. The supernatant was poured into a new eppendorf tube and cell concentrations were determined using the Dc Protein assay Kit (Bio-Rad, MA). Passaged cells were plated at a concentration of 1×10^5 into 6 well plates containing DMEM with 10% FBS. The cells were seen to attach to the bottom of the culture wells after 4 hours. Freshly prepared muscarinic agents' at base line, 0.1, 1, 10 and 100 μM concentrations were added for 5 days (Table 2). The culture medium was removed and fresh medium containing the same muscarinic drug added every day to avoid drug changes such as atropine oxidation. Cell lysate was collected for relative quantitative (q) PCR and protein analysis at day 5.
The cells were lysed by sonification in 1×RIPA lysis buffer (santa cruz biotechnology, Sc-24948) with 10 μl PMSF solution, 10 μl sodium orthovanadate solution and 20 μl protease inhibitor cocktail solution. After centrifugation at 20,000×g at 4° C. for 20 minutes, and the supernatant collected. The protein content in the supernatants was measured using the DC Protein Assay kit (Bio-Rad, MA) following the manufacturer's instructions. Samples were stored at −80° C. until assayed.
The mouse and human scleral fibroblasts were treated with atropine or carbachol at 0.01, 0.1, 1, 5 and 10 μM concentrations for 5 days. Following 5 days of treatment, the total cellular protein was extracted from these cells and TG proteins detected via Western blot analysis.
Human and, mouse scleral fibroblast proteins in the supernatant were separated by SDS-PAGE, transferred to nitrocellulose membranes, blocked in 5% BSA in TBST (10 mM Tris-HCl [pH 8.0], 150 mM NaCl, and […] Tween-20) for 2 hours at room temperature, and incubated with the same anti-TG-2 antibody described herein at a dilution of 1:1000 and anti β-tubulin antibodies used as a positive control, for 1 hour at room temperature. […]

[2] = test system: mouse eyes treated with −15D spectacle lens; assay: spectacle lens-induced myopia in mice, axial length and refractive error; format: in vivo; details: lens with 0.1% drug; for axial length: vs lens treated eyes; for refractive error: infrared photorefractor
Method: Topical applications were administered to both eyes at the same time each day (approximately 9:00 AM) commencing on the 12th day (initiation of spectacle lens treatment). A compatible drug level was determined prior to the in vivo use in a tissue culture study with mouse scleral fibroblasts. […] This treatment schedule continued for four weeks starting on post-natal day 12 continued until post-natal day 42. All measurements were taken at post-natal day 42, the equivalent of 4 weeks of spectacle lens wear.
Each eye was refracted every week to measure the refractive error using automated infrared photorefraction as described in Barathi, V. A., Beuerman, R. W., Schaeffel, F., 2009a, “Effects of unilateral topical atropine on binocular pupil responses and eye growth in mice”, Vision Res 49, 383-387. By using Optical Low Coherence Interferometry (OLCI, AC Master, Carl-Zeiss), the axial length of the eye was measured in-vivo as described in Yin G C, Gentle A, McBrien N A, “Muscarinic antagonist control of myopia: a molecular search for the M1 receptor in chick”, Mol. Vis. 2004; 13(10):787-93 and Barathi, V. A., Boopathi, V. G., Yap, E. P., Beuerman, R. W., 2008, “Two models of experimental myopia in the mouse”, Vision Res 48, 904-916. […] Differences of refractive power and axial length between eyes were calculated. Independent t-tests were used to compare experimental and control eyes in wild type and TGM2-deleted or M1-M5 mutant mice.
Right eyes were experimental and left eyes served as contra-lateral control. In vivo axial length was measured at 2 weeks and 4 weeks after treatment. […] Automated infrared photorefractor was used to measure the refractive error measurements.

| Compound | TG-2 protein level ([1]; specific muscarinic antagonists) | reduction in the mouse myopia progression, among all the drugs ([2]; 2 weeks and 4 weeks) | axial length ([2]; 2 weeks and 4 weeks) | refractive error [2] | TG-2 protein level ([1]; 0.01-10 μM for 5 days, Western blot) |
| --- | --- | --- | --- | --- | --- |
| C[C@@H]1OC(=O)[C@H]2C[C@H]3CCCC[C@@H]3[C@@H](/C=C/[C@H]3CCC[C@H](C)N3C)[C@@H]12 [himbacine] | significantly reduced | most significant amount of reduction | significantly reduced | shifted from myopic to hyperoic | – |
| CN1[C@@H]2CC[C@H]1C[C@@H](OC(=O)C(CO)c1ccccc1)C2 (stereo partly shown) [atropine] | – | – | significantly reduced | shifted from myopic to hyperoic | reduced |
